Key:
[1] = target: [MCL-1]-[compound of formula (I)]-[CRBN/DDB1] complex (Homo sapiens, UniProt Q07820+Q96SW2); assay: AlphaLISA dose response ternary complex formation assay; assay type: binding; conditions: read-out: AlphaLISA dose response Average pEC50 by molecule (converted)
Procedure, shortened: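 EC50 comes from dose–response of AlphaLISA luminescence (excitation 680, emission 615 nm), normalised between DMSO background and an internal positive control, with concentrations past the hook point dropped. Ternary complex formed by mixing bead-bound biotin-hMCL-1 and His-CRBN/DDB1 (protein solutions 40 and 200 nM) with compound in 2% DMSO, 30 min, 25 °C.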

[2] = target: MCL-1 protein (Homo sapiens, UniProt Q07820); assay: OPM-2 cells: MCL-1 protein degradation, Western blot; assay type: cell-based; parameters: endogenous in cells; host or cells: OPM-2; conditions: OPM-2 cell line, 6 h treatment, 100 nM compound, vs DMSO
Text: The effect of various compounds of the invention and the reference compounds on MCL-1 protein degradation in the OPM-2 cell line was investigated, using the degradation assay protocol below.
OPM-2 cells were maintained in RPMI-1640 medium, supplemented with penicillin/streptomycin and 10% Fetal Bovine Serum (FBS). During the treatment, FBS concentration was reduced to 1%.
Compound stocks were pre-diluted in DMSO and added directly to the cells growth medium (final DMSO concentration: 0.5%).
OPM-2 cells were collected, centrifuged (250 rcf, 5 min), resuspended in a growth medium containing 1% FBS and counted. The cell suspension was then adjusted to 1×10^6 cell/ml using a growth medium containing 1% FBS. Afterwards, 0.5×10^6 cells were seeded on 24-well plates in 0.5 mL of medium per well. Immediately after seeding cells, compounds in appropriate concentrations were added to the cell culture medium.
Following the treatment with the compounds, cells were collected from the plates and suspended in a lysis buffer (2% SDS, 50 mM Tris, pH 8.0, 100 U/ml Pierce Universal Nuclease for Cell Lysis, complete EDTA-free Protease Inhibitor Cocktail) and incubated on ice for 45 min. The amount of protein was determined via BCA assay, and the equal quantity of each sample was loaded on the precast gel for the protein separation. Following the electrophoresis and transfer to the membrane, the membrane was stained with Ponceau (0.1% (w/v) Ponceau in 5% acetic acid). After total protein detection, the stain was washed out using TBST. After the antibody staining for MCL-1 and α-tubulin, the membranes were washed and signals developed.
Densitometric values for MCL-1 were normalized to total protein level (the Ponceau Staining). [%] of protein reduction is calculated in comparison to the cells treated with DMSO, which stand for 0%.
The results for the 6 h treatment with 100 nM compounds are shown in Table 9, using the following labels: • <30% for 0-29% of MCL-1 protein reduction, • ≥30% for 30-49% of MCL-1 protein reduction, • ≥50% for 50-100% of MCL-1 protein reduction.

[3] = system: hiPSC-CM (iCELL Cardiomyocytes); assay: Cardiac safety: hiPSC-CM cell viability assay (CTG); assay type: cell-based, human; conditions: for IC50: Homo sapiens, Cardiomyocyte, 336 h, viability, CTG assay, treatment until day 14, read-out: Average pIC50 by molecule hiPSC-CM (converted); for activity in viability assay in cardiomyocytes: as opposed to reference compounds MIK665 and AZD5991
Text: The effect of various compounds of the invention and a reference compounds AZD5991 and MIK665 on cardiac safety was investigated by the evaluation of viability with CTG assay (Promega; cat #G7572) in iCELL™ Cardiomyocytes from FUJIFILM Cellular Dynamics (Catalog number: 11713).
Cells were thawed, counted using an automated cell counter (TC20, Bio-Rad) and seeded in 96 well plates (Greiner-BioOne; 655098) previously coated with 0.1% gelatin (Sigma-Aldrich; G1890) using Plating Medium (#M1001) following the instructions of the iCELL cardiomyocytes User Guide. Forty ml of Plating Medium was used to equally distribute the cells in four 96 well plates. Cells were then placed in the incubator at 37° C., 5% CO2 and left undisturbed for 48 hours. Compounds were serially diluted in DMSO and then further diluted to final assay concentration using maintenance medium (#M1003). Final DMSO concentration was 0.5%. Forty eight hours after plating, non-adherent cells and debris were washed as described in the User Guide. Plating medium was then replaced with maintenance medium containing diluted compounds or DMSO (as control). Medium was then changed every 2 days with fresh medium containing compounds or DMSO until the end of the treatment. On day 14, only medium without compounds was used immediately before the CTG assay. Luminescence signal was measured using a CLARIOstar Plus Multi-Mode Microplate Reader (574-590 nm).

MCL-1 protein, sequence (Q07820 whole entry): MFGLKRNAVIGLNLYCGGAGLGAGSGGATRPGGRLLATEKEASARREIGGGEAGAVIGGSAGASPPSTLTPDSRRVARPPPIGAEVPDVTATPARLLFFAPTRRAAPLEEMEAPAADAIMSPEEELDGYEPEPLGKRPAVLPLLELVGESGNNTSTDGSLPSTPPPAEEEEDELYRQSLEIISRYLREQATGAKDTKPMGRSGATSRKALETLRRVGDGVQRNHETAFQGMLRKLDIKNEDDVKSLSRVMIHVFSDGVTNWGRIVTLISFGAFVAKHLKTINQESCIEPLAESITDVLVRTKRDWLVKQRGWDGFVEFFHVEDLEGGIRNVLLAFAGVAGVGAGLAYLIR
[MCL-1]-[compound of formula (I)]-[CRBN/DDB1] complex, sequence (Q07820 whole entry): as above
[MCL-1]-[compound of formula (I)]-[CRBN/DDB1] complex, sequence (Q96SW2 whole entry): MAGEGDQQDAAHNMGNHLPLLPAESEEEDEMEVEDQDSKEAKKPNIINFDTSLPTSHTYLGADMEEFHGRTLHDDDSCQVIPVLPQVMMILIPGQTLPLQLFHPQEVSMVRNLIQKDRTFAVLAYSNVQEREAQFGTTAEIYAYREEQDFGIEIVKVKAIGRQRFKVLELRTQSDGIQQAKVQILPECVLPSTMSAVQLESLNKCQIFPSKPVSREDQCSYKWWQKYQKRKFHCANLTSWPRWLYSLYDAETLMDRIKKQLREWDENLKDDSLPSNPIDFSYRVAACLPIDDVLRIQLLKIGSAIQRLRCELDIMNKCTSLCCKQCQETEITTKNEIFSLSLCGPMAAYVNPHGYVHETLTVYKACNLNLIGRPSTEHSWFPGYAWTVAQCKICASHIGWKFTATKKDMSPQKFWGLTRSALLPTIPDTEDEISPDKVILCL
[MCL-1]-[compound of formula (I)]-[CRBN/DDB1] complex, sequence (Q16531 whole entry partner): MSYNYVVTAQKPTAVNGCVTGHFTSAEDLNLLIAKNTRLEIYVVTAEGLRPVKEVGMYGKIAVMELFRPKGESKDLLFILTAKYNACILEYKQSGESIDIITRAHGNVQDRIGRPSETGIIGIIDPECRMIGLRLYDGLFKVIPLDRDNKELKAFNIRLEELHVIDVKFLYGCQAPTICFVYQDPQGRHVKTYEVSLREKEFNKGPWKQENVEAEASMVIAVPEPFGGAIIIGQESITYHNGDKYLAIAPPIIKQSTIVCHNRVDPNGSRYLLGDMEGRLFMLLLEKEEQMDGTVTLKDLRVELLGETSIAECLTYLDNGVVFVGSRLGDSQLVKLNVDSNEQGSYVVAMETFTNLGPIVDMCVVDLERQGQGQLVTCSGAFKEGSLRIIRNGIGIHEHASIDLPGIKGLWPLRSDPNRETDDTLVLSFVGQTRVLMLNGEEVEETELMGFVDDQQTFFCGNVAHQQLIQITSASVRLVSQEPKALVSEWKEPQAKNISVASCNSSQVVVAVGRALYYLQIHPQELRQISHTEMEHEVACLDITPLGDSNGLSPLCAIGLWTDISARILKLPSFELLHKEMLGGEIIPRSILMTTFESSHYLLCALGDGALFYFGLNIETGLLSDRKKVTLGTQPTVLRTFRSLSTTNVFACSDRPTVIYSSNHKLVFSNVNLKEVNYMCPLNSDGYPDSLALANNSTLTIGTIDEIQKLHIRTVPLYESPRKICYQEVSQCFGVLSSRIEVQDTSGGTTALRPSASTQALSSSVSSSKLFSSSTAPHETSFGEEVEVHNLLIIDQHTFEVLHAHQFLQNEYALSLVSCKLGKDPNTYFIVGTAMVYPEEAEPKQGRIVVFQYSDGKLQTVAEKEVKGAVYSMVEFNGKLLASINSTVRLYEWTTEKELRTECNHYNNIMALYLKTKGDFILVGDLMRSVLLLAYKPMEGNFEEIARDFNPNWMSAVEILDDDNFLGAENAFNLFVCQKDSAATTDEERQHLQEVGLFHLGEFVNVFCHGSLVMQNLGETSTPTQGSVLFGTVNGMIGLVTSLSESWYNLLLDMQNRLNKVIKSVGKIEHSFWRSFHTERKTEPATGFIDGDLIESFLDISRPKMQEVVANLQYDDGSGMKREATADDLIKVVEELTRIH

| EC50 [1] | Western blot, % of protein reduction [2] | SMILES | IC50 [3] | activity in viability assay in cardiomyocytes [3] |
| --- | --- | --- | --- | --- |
| < 0.1 µM | ≥50% | Cc1nn(C)c(C)c1-c1c(Cl)ccc2c(CCCOc3cccc4ccccc34)c(C(=O)O)n(CCN3CCN(C(=O)COc4cccc5c4C(=O)N(C4CCC(=O)NC4=O)C5=O)CC3)c12 (stereo not drawn) [Compound 204, 6-chloro-1-(2-(4-(2-((2-(2,6-dioxopiperidin-3-yl)-1,3-dioxoisoindolin-4-yl)oxy)acetyl)piperazin-1-yl)ethyl)-3-(3-(naphthalen-1-yloxy)propyl)-7-(1,3,5-trimethyl-1H-pyrazol-4-yl)-1H-indole-2-carboxylic acid] | – | – |
| < 0.1 µM | ≥50% | Cc1nn(C)c(C)c1-c1c(F)ccc2c(CCCOc3cccc4cc(F)ccc34)c(C(=O)O)n(CCN3CCN(C(=O)COc4cccc5c4C(=O)N(C4CCC(=O)NC4=O)C5=O)CC3)c12 (stereo not drawn) [Compound 215, 1-{2-[4-(2-{[2-(2,6-dioxopiperidin-3-yl)-1,3-dioxo-2,3-dihydro-1H-isoindol-4-yl]oxy}acetyl)piperazin-1-yl]ethyl}-6-fluoro-3-{3-[(6-fluoronaphthalen-1-yl)oxy]propyl}-7-(1,3,5-trimethyl-1H-pyrazol-4-yl)-1H-indole-2-carboxylic acid] | – | – |
| < 0.1 µM | ≥50% | Cc1nn(C)c(C)c1-c1c(Cl)ccc2c(CCCOc3cccc4cc(F)ccc34)c(C(=O)O)n(CCN3CCN(C(=O)COc4cccc5c4CN(C4CCC(=O)NC4=O)C5=O)CC3)c12 (stereo not drawn) [Compound 220, 6-chloro-1-{2-[4-(2-{[2-(2,6-dioxopiperidin-3-yl)-1-oxo-2,3-dihydro-1H-isoindol-4-yl]oxy}acetyl)piperazin-1-yl]ethyl}-3-{3-[(6-fluoronaphthalen-1-yl)oxy]propyl}-7-(1,3,5-trimethyl-1H-pyrazol-4-yl)-1H-indole-2-carboxylic acid] | 10 µM | much lower activity |
| – | ≥50% | Cc1nn(C)c(C)c1-c1c(Cl)ccc2c(CCCOc3cccc4cc(F)ccc34)c(C(=O)O)n(CCN3CCN(C(=O)Cn4c(C)nc5c(C(=O)NC6CCC(=O)NC6=O)cccc54)CC3)c12 (stereo not drawn) [Compound 268, 6-chloro-1-{2-[4-(2-{4-[(2,6-dioxopiperidin-3-yl)carbamoyl]-2-methyl-1H-1,3-benzodiazol-1-yl}acetyl)piperazin-1-yl]ethyl}-3-{3-[(6-fluoronaphthalen-1-yl)oxy]propyl}-7-(1,3,5-trimethyl-1H-pyrazol-4-yl)-1H-indole-2-carboxylic acid] | > 39.8 µM | much lower activity |
| < 0.1 µM | ≥50% | Cc1nn2c(c1-c1c(Cl)ccc3c(CCCOc4cccc5cc(F)ccc45)c(C(=O)O)n(CCN4CCN(C(=O)COc5cccc6c5CN(C5CCC(=O)NC5=O)C6=O)CC4)c13)COCC2 (stereo not drawn) [Compound 346, 6-Chloro-1-(2-(4-(2-((2-(2,6-dioxopiperidin-3-yl)-1-oxoisoindolin-4-yl)oxy)acetyl)piperazin-1-yl)ethyl)-3-(3-((6-fluoronaphthalen-1-yl)oxy)propyl)-7-(2-methyl-6,7-dihydro-4H-pyrazolo[5,1-c][1,4]oxazin-3-yl)-1H-indole-2-carboxylic acid] | 10 µM | much lower activity |

Source: US20240294499A1, “TARGETED PROTEIN DEGRADATION USING BIFUNCTIONAL COMPOUNDS THAT BIND UBIQUITIN LIGASE AND TARGET MCL-1 PROTEIN” (Captor Therapeutics S.A., priority 2021, published 2024)
